Residues, ends and D or L forms follow the SMILES beside them. *: point of attachment. X11 = CN(Cc1ccc(-c2[nH]c3cc(F)cc4c3c2CCNC4=O)cc1)C(=O)OCc1ccc(NC(=O)OCCS*)cc1; X13 = Cc1cc(COC(=O)N(C)Cc2ccc(-c3[nH]c4cc(F)cc5c4c3CCNC5=O)cc2)cc(C)c1S*; X5 = CNCc1ccc(-c2c3c4c(cc(F)cc4n2[C@H](CC(C)C)NC(=O)OCCS*)C(=O)NCC3)cc1; X10 = Cc1cc(COC(=O)N(C)Cc2ccc(-c3[nH]c4cc(F)cc5c4c3CCNC5=O)cc2)ccc1S*; X15 = Cc1cc(S*)ccc1COC(=O)N(C)Cc1ccc(-c2[nH]c3cc(F)cc4c3c2CCNC4=O)cc1; X3 = CN(Cc1ccc(-c2[nH]c3cc(F)cc4c3c2CCNC4=O)cc1)C(=O)OCc1ccc(S*)cc1; X18 = CNCc1ccc(-c2c3c4c(cc(F)cc4n2CNC(=O)OCCS*)C(=O)NCC3)cc1

Drawing on patent publication US12427157B2, “Methods for treatment of diseases involving acidic or hypoxic diseased tissues” (Cybrexa 1, Inc., priority 2018, dated 2025), this text covers IC50 for seven compounds.

The experiment has as its target PARP (Homo sapiens, UniProt P09874). Briefly: Enzymatic Assay 2: HT Universal Chemiluminescent PARP Assay of cleaved compounds.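 Also: PARP reaction with activated DNA run 1 h at room temperature, product detected via streptavidin-HRP and luminescence endpoint reading on a plate reader.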 The settings on record: read-out: IC50 Enzymatic Assay 2; Examples cleaved per Example A (crude cleavage solution); R^8H starting materials as such.

Chain of PARP (P09874 whole entry): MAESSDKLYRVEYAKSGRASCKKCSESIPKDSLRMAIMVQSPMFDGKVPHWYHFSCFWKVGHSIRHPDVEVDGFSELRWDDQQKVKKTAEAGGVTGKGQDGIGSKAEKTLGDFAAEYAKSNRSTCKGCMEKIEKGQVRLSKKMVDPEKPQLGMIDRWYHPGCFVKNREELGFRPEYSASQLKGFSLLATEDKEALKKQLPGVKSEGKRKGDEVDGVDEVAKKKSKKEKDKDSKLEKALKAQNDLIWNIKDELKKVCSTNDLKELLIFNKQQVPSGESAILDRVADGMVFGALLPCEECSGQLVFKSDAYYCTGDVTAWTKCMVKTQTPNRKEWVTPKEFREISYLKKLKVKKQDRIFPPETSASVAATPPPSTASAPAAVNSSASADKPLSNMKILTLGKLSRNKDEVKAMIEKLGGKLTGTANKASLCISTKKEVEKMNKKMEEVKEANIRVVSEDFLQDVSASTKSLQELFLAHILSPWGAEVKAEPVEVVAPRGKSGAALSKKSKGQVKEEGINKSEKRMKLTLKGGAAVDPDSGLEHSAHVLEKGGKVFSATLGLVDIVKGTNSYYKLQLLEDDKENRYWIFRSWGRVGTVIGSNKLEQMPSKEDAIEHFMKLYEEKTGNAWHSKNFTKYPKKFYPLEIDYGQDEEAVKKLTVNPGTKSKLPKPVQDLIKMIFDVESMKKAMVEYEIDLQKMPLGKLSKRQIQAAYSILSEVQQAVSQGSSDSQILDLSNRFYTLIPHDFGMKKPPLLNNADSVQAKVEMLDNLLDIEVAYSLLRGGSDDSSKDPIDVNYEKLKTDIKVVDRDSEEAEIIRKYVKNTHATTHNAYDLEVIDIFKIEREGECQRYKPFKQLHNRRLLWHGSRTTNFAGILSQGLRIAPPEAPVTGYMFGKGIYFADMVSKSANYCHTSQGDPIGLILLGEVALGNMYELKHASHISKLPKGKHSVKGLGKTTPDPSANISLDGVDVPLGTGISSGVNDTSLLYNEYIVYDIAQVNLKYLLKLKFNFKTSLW
Method: An equal volume of 1×PARP cocktail containing activated DNA was added to each well and the reaction was incubated for one hour at room temperature. The wells were washed twice with 1×PBS+0.1% Triton X-100 and twice with PBS. 50 ul/well of diluted streptavidin-HRP was added and the wells were incubated for one hour at room temperature. The wells were washed twice with 1×PBS+0.1% Triton X-100 and washed twice with PBS. The liquid was 5 removed, 100 ul/well 1:1 PeroxyGlow A/PeroxyGlow B was added and the chemiluminescent readings were measured on a BioTek Cytation 5 plate reader using the luminescence fiber endpoint.

As to `CC[C@H](C)[C@H](NC(=O)[C@@H]1CCCN1C(=O)[C@H](CC(N)=O)NC(=O)[C@H](CCC(N)=O)NC(=O)[C@H](CCC(=O)O)NC(=O)[C@H](C)N)C(=O)N[C@@H](Cc1ccc(O)cc1)C(=O)N[C@@H](Cc1c[nH]c2ccccc12)C(=O)N[C@@H](C)C(=O)N[C@@H](CCCNC(=N)N)C(=O)N[C@@H](Cc1ccc(O)cc1)C(=O)N[C@@H](C)C(=O)N[C@@H](CC(=O)O)C(=O)N[C@@H](Cc1c[nH]c2ccccc12)C(=O)N[C@@H](CC(C)C)C(=O)N[C@@H](Cc1ccccc1)C(=O)N[C@H](C(=O)N[C@H](C(=O)N1CCC[C@H]1C(=O)N[C@@H](CC(C)C)C(=O)N[C@@H](CC(C)C)C(=O)N[C@@H](CC(C)C)C(=O)N[C@@H](CC(C)C)C(=O)N[C@@H](CC(=O)O)C(=O)N[C@@H](CC(C)C)C(=O)N[C@@H](C)C(=O)N[C@@H](CC(C)C)C(=O)N[C@@H](CC(C)C)C(=O)N[C@H](C(=O)N[C@@H](CC(=O)O)C(=O)N[C@@H](C)C(=O)N[C@@H](CC(=O)O)C(=O)N[C@@H](CCC(=O)O)C(=O)N[C@@H](CSSc1ccc(COC(=O)N(C)Cc2ccc(-c3[nH]c4cc(F)cc5c4c3CCNC5=O)cc2)cc1)C(=O)NCC(=O)O)C(C)C)[C@@H](C)O)[C@@H](C)O` [Example 28] (H-AEQNPIYWARYADWLFTTPLLLLDLALLVDADEC(X3)G-OH; N-terminus and C-terminus assumed), the IC50 (commonly the concentration needed to halve the response being measured) is 2.4 nM. The same measure for `CC[C@H](C)[C@H](NC(=O)[C@@H]1CCCN1C(=O)[C@H](CC(N)=O)NC(=O)[C@H](CCC(N)=O)NC(=O)[C@H](CCC(=O)O)NC(=O)[C@H](C)N)C(=O)N[C@@H](Cc1ccc(O)cc1)C(=O)N[C@@H](Cc1c[nH]c2ccccc12)C(=O)N[C@@H](C)C(=O)N[C@@H](CCCNC(=N)N)C(=O)N[C@@H](Cc1ccc(O)cc1)C(=O)N[C@@H](C)C(=O)N[C@@H](CC(=O)O)C(=O)N[C@@H](Cc1c[nH]c2ccccc12)C(=O)N[C@@H](CC(C)C)C(=O)N[C@@H](Cc1ccccc1)C(=O)N[C@H](C(=O)N[C@H](C(=O)N1CCC[C@H]1C(=O)N[C@@H](CC(C)C)C(=O)N[C@@H](CC(C)C)C(=O)N[C@@H](CC(C)C)C(=O)N[C@@H](CC(C)C)C(=O)N[C@@H](CC(=O)O)C(=O)N[C@@H](CC(C)C)C(=O)N[C@@H](C)C(=O)N[C@@H](CC(C)C)C(=O)N[C@@H](CC(C)C)C(=O)N[C@H](C(=O)N[C@@H](CC(=O)O)C(=O)N[C@@H](C)C(=O)N[C@@H](CC(=O)O)C(=O)N[C@@H](CCC(=O)O)C(=O)N[C@@H](CSSc1ccc(COC(=O)N(C)Cc2ccc(-c3[nH]c4cc(F)cc5c4c3CCNC5=O)cc2)cc1C)C(=O)NCC(=O)O)C(C)C)[C@@H](C)O)[C@@H](C)O` [Example 29] (H-AEQNPIYWARYADWLFTTPLLLLDLALLVDADEC(X10)G-OH; N-terminus and C-terminus assumed): 6.4 nM; for `CC[C@H](C)[C@H](NC(=O)[C@@H]1CCCN1C(=O)[C@H](CC(N)=O)NC(=O)[C@H](CCC(N)=O)NC(=O)[C@H](CCC(=O)O)NC(=O)[C@H](C)N)C(=O)N[C@@H](Cc1ccc(O)cc1)C(=O)N[C@@H](Cc1c[nH]c2ccccc12)C(=O)N[C@@H](C)C(=O)N[C@@H](CCCNC(=N)N)C(=O)N[C@@H](Cc1ccc(O)cc1)C(=O)N[C@@H](C)C(=O)N[C@@H](CC(=O)O)C(=O)N[C@@H](Cc1c[nH]c2ccccc12)C(=O)N[C@@H](CC(C)C)C(=O)N[C@@H](Cc1ccccc1)C(=O)N[C@H](C(=O)N[C@H](C(=O)N1CCC[C@H]1C(=O)N[C@@H](CC(C)C)C(=O)N[C@@H](CC(C)C)C(=O)N[C@@H](CC(C)C)C(=O)N[C@@H](CC(C)C)C(=O)N[C@@H](CC(=O)O)C(=O)N[C@@H](CC(C)C)C(=O)N[C@@H](C)C(=O)N[C@@H](CC(C)C)C(=O)N[C@@H](CC(C)C)C(=O)N[C@H](C(=O)N[C@@H](CC(=O)O)C(=O)N[C@@H](C)C(=O)N[C@@H](CC(=O)O)C(=O)N[C@@H](CCC(=O)O)C(=O)N[C@@H](CSSc1ccc(COC(=O)N(C)Cc2ccc(-c3[nH]c4cc(F)cc5c4c3CCNC5=O)cc2)c(C)c1)C(=O)NCC(=O)O)C(C)C)[C@@H](C)O)[C@@H](C)O` [Example 30] (H-AEQNPIYWARYADWLFTTPLLLLDLALLVDADEC(X15)G-OH; N-terminus and C-terminus assumed): 2.9 nM. For the compound `CC[C@H](C)[C@H](NC(=O)[C@@H]1CCCN1C(=O)[C@H](CC(N)=O)NC(=O)[C@H](CCC(N)=O)NC(=O)[C@H](CCC(=O)O)NC(=O)[C@H](C)N)C(=O)N[C@@H](Cc1ccc(O)cc1)C(=O)N[C@@H](Cc1c[nH]c2ccccc12)C(=O)N[C@@H](C)C(=O)N[C@@H](CCCNC(=N)N)C(=O)N[C@@H](Cc1ccc(O)cc1)C(=O)N[C@@H](C)C(=O)N[C@@H](CC(=O)O)C(=O)N[C@@H](Cc1c[nH]c2ccccc12)C(=O)N[C@@H](CC(C)C)C(=O)N[C@@H](Cc1ccccc1)C(=O)N[C@H](C(=O)N[C@H](C(=O)N1CCC[C@H]1C(=O)N[C@@H](CC(C)C)C(=O)N[C@@H](CC(C)C)C(=O)N[C@@H](CC(C)C)C(=O)N[C@@H](CC(C)C)C(=O)N[C@@H](CC(=O)O)C(=O)N[C@@H](CC(C)C)C(=O)N[C@@H](C)C(=O)N[C@@H](CC(C)C)C(=O)N[C@@H](CC(C)C)C(=O)N[C@H](C(=O)N[C@@H](CC(=O)O)C(=O)N[C@@H](C)C(=O)N[C@@H](CC(=O)O)C(=O)N[C@@H](CCC(=O)O)C(=O)N[C@@H](CSSc1c(C)cc(COC(=O)N(C)Cc2ccc(-c3[nH]c4cc(F)cc5c4c3CCNC5=O)cc2)cc1C)C(=O)NCC(=O)O)C(C)C)[C@@H](C)O)[C@@H](C)O` [Example 31] (H-AEQNPIYWARYADWLFTTPLLLLDLALLVDADEC(X13)G-OH; N-terminus and C-terminus assumed), the half-maximal inhibitory concentration (IC50) came out at 3.3 nM. The same measure for `CC[C@H](C)[C@H](NC(=O)[C@@H]1CCCN1C(=O)[C@H](CC(N)=O)NC(=O)[C@H](CCC(N)=O)NC(=O)[C@H](CCC(=O)O)NC(=O)[C@H](C)N)C(=O)N[C@@H](Cc1ccc(O)cc1)C(=O)N[C@@H](Cc1c[nH]c2ccccc12)C(=O)N[C@@H](C)C(=O)N[C@@H](CCCNC(=N)N)C(=O)N[C@@H](Cc1ccc(O)cc1)C(=O)N[C@@H](C)C(=O)N[C@@H](CC(=O)O)C(=O)N[C@@H](Cc1c[nH]c2ccccc12)C(=O)N[C@@H](CC(C)C)C(=O)N[C@@H](Cc1ccccc1)C(=O)N[C@H](C(=O)N[C@H](C(=O)N1CCC[C@H]1C(=O)N[C@@H](CC(C)C)C(=O)N[C@@H](CC(C)C)C(=O)N[C@@H](CC(C)C)C(=O)N[C@@H](CC(C)C)C(=O)N[C@@H](CC(=O)O)C(=O)N[C@@H](CC(C)C)C(=O)N[C@@H](C)C(=O)N[C@@H](CC(C)C)C(=O)N[C@@H](CC(C)C)C(=O)N[C@H](C(=O)N[C@@H](CC(=O)O)C(=O)N[C@@H](C)C(=O)N[C@@H](CC(=O)O)C(=O)N[C@@H](CCC(=O)O)C(=O)N[C@@H](CSSCCOC(=O)Nc1ccc(COC(=O)N(C)Cc2ccc(-c3[nH]c4cc(F)cc5c4c3CCNC5=O)cc2)cc1)C(=O)NCC(=O)O)C(C)C)[C@@H](C)O)[C@@H](C)O` [Example 32] (H-AEQNPIYWARYADWLFTTPLLLLDLALLVDADEC(X11)G-OH; N-terminus and C-terminus assumed): 43.9 nM; for `CC[C@H](C)[C@H](NC(=O)[C@@H]1CCCN1C(=O)[C@H](CC(N)=O)NC(=O)[C@H](CCC(N)=O)NC(=O)[C@H](CCC(=O)O)NC(=O)[C@H](C)N)C(=O)N[C@@H](Cc1ccc(O)cc1)C(=O)N[C@@H](Cc1c[nH]c2ccccc12)C(=O)N[C@@H](C)C(=O)N[C@@H](CCCNC(=N)N)C(=O)N[C@@H](Cc1ccc(O)cc1)C(=O)N[C@@H](C)C(=O)N[C@@H](CC(=O)O)C(=O)N[C@@H](Cc1c[nH]c2ccccc12)C(=O)N[C@@H](CC(C)C)C(=O)N[C@@H](Cc1ccccc1)C(=O)N[C@H](C(=O)N[C@H](C(=O)N1CCC[C@H]1C(=O)N[C@@H](CC(C)C)C(=O)N[C@@H](CC(C)C)C(=O)N[C@@H](CC(C)C)C(=O)N[C@@H](CC(C)C)C(=O)N[C@@H](CC(=O)O)C(=O)N[C@@H](CC(C)C)C(=O)N[C@@H](C)C(=O)N[C@@H](CC(C)C)C(=O)N[C@@H](CC(C)C)C(=O)N[C@H](C(=O)N[C@@H](CC(=O)O)C(=O)N[C@@H](C)C(=O)N[C@@H](CC(=O)O)C(=O)N[C@@H](CCC(=O)O)C(=O)N[C@@H](CSSCCOC(=O)NCn1c(-c2ccc(CNC)cc2)c2c3c(cc(F)cc31)C(=O)NCC2)C(=O)NCC(=O)O)C(C)C)[C@@H](C)O)[C@@H](C)O` [Example 33] (H-AEQNPIYWARYADWLFTTPLLLLDLALLVDADEC(X18)G-OH; N-terminus and C-terminus assumed): 2.3 nM; for `CC[C@H](C)[C@H](NC(=O)[C@@H]1CCCN1C(=O)[C@H](CC(N)=O)NC(=O)[C@H](CCC(N)=O)NC(=O)[C@H](CCC(=O)O)NC(=O)[C@H](C)N)C(=O)N[C@@H](Cc1ccc(O)cc1)C(=O)N[C@@H](Cc1c[nH]c2ccccc12)C(=O)N[C@@H](C)C(=O)N[C@@H](CCCNC(=N)N)C(=O)N[C@@H](Cc1ccc(O)cc1)C(=O)N[C@@H](C)C(=O)N[C@@H](CC(=O)O)C(=O)N[C@@H](Cc1c[nH]c2ccccc12)C(=O)N[C@@H](CC(C)C)C(=O)N[C@@H](Cc1ccccc1)C(=O)N[C@H](C(=O)N[C@H](C(=O)N1CCC[C@H]1C(=O)N[C@@H](CC(C)C)C(=O)N[C@@H](CC(C)C)C(=O)N[C@@H](CC(C)C)C(=O)N[C@@H](CC(C)C)C(=O)N[C@@H](CC(=O)O)C(=O)N[C@@H](CC(C)C)C(=O)N[C@@H](C)C(=O)N[C@@H](CC(C)C)C(=O)N[C@@H](CC(C)C)C(=O)N[C@H](C(=O)N[C@@H](CC(=O)O)C(=O)N[C@@H](C)C(=O)N[C@@H](CC(=O)O)C(=O)N[C@@H](CCC(=O)O)C(=O)N[C@@H](CSSCCOC(=O)N[C@@H](CC(C)C)n1c(-c2ccc(CNC)cc2)c2c3c(cc(F)cc31)C(=O)NCC2)C(=O)NCC(=O)O)C(C)C)[C@@H](C)O)[C@@H](C)O` [Example 34] (H-AEQNPIYWARYADWLFTTPLLLLDLALLVDADEC(X5)G-OH; N-terminus and C-terminus assumed): 2.5 nM.
